row,SMILES,melting point
1,CNC(=O)N(O)C(C)c1ccc(Br)cc1 (stereo not drawn),129 to 130 °C
2,COC(=O)CCCCCCCCc1ccc(O)cc1,52 to 54 °C
3,CCO/C(=C\c1ccc(OCCc2ccc(OS(C)(=O)=O)cc2)c(OC)c1)C(=O)O,147 °C
4,NCC1CCN(c2ncc3ncnc(Nc4ccc(F)c(Cl)c4)c3n2)CC1,165 °C
5,CN(C)CCC1CN(C)C(=S)c2cc([N+](=O)[O-])ccc2O1 (stereo not drawn),104 to 109 °C
6,O=C(O)c1ccc(Cn2c(=O)sc3ccc(C#CCc4ccccc4)cc3c2=O)cc1,240 to 242 °C
7,CCCCCN(CCC12CC3CC(CC(C3)C1)C2)C(=O)NCCCc1ccnc2ccccc12,80.2 to 102 °C
8,Cc1c(C=O)c2c(c(C)c1NC=O)C(c1ccc(C(C)C)cc1)CO2 (stereo not drawn),123 to 124 °C
9,COCOc1ccc(-c2ccc3c(c2)C=C(C(=O)Nc2ccc(CN(C)C4CCOCC4)cc2)CCS3(=O)=O)cc1,227 to 229 °C
10,NC(=O)CN1C(=O)[C@@H](NC(=O)c2ccccc2)[C@H](c2ccccc2)Sc2ccccc21 (relative stereo),246 to 248 °C
11,Cc1nc2c(O)c(C(=O)[C@H](O)[C@@H](O)c3ccccc3)ccc2n1C,170 °C
12,O=C(CF)CS(=O)(=O)C(c1ccc(Cl)cc1)c1ccc(Cl)cc1,55 to 58 °C
13,N[C@H]1Cc2ccccc2[C@@H]1O,104 to 106 °C
14,O=C(COc1ccccc1)NCCO[N+](=O)[O-],61 to 62 °C
15,Cc1c(C)c2c(c(C)c1Br)C(=O)C(C)(C)O2,92 to 93 °C
16,Cc1nc2c(N)nc3cc(OCCC4CCN(C(=O)C(C)C)CC4)ccc3c2n1CC(C)C,205 to 207 °C
17,Cn1ccnc1-c1ccc(C(=O)CNC(=O)[C@H](Cc2ccccn2)NC(=O)OC(C)(C)C)cc1,120 to 124 °C
18,OCCc1nccn1CCCCc1ccc(OCc2coc(/C=C/c3ccc(F)cc3F)n2)cc1,93 to 95 °C
19,CC1=NN(c2ccccc2)C(=O)C1C=O (stereo not drawn),178 to 180 °C
20,O=C1N(Cc2ccc3c(c2)OCCO3)c2ccccc2C12COc1cc3c(cc12)OCCO3 (stereo not drawn),120 to 123 °C
21,CC(=O)c1c(-c2ccccc2)n(C)c2ccccc12,76 to 77 °C
22,COc1cc2ncnc(N3CCN(C(=O)NCc4ccc(Br)cc4)CC3)c2cc1OC,211 to 212 °C
23,CC1N(C)c2cc3[nH]c(=O)cc(C(F)(F)F)c3cc2C1(C)C (stereo not drawn),248 to 249 °C
24,NCC1Cc2cc(-c3ccc(Cl)cc3)cc(F)c2O1 (stereo not drawn),> 250 °C
25,CC(=O)Nc1ccc([N+](=O)[O-])cc1OC[Si](C)(C)C,128 °C

row,SMILES,melting point
1,COC(=O)Nc1nc2cc(SCC3CC3)ccc2[nH]1,228 to 231 °C
2,CCn1cc(C(=O)O)c(=O)c2cc(F)c(N3CCCC(O)C3)c(F)c21 (stereo not drawn),232 to 234 °C
3,CCCCC(CBr)CCCc1ccccc1 (stereo not drawn),31 to 33 °C
4,CCCCCNC(=O)N(C)c1cccc(-c2ccc(/C=C(\OCC)C(=O)O)cc2)n1,162 °C
5,COc1cc(CC(C)=O)ccc1OCC(O)CN1CCN(c2ccccc2C)CC1 (stereo not drawn),128 °C
6,CCOC(=O)c1nc(C)oc1C(=O)NC(C)(C)C,152 to 155 °C
7,CCCn1nc(SCCCCCCC(=O)O)c(C(=O)O)c1Cc1cc2c(cc1Cl)OCO2,180 °C
8,CCOC(=O)C(=CNc1cc(C)nc(-c2ccncc2)n1)C(=O)OCC,169 to 171 °C
9,CC(=O)Nc1c(O)cc(C(=O)O)cc1[N+](=O)[O-],215 to 220 °C
10,COC(=O)Cc1nc(-c2ccc(OC)c(OC)c2)c2cc(Cl)ccc2n1,144 to 145 °C
11,NC(=O)c1cnc2c(cc([N+](=O)[O-])c3nncc32)c(-c2ccccc2Cl)n1,> 340 °C
12,NCCc1ccc(-n2cnc3cnc4ccc(Cl)cc4c32)cc1,140 to 141 °C
13,Cc1ccc(S(=O)(=O)NOC(C)C)cc1,104 °C
14,C=C1CC(c2ccc(C)c(C)c2)N(C)C1=O (stereo not drawn),180 to 184 °C
15,CCOc1ccc(C(OC(C)=O)c2sccc2C=O)cc1OCC (stereo not drawn),68 °C
16,CCCCCOc1cc2c(cc1/C=C/c1ccc(C(=O)O)cc1)C(C)(C)CCC2(C)C,148 to 149 °C
17,c1nc(SCC2CCCC2)n[nH]1,48 to 55 °C
18,CC(C)(C)OC(=O)N1CCC(OCc2ccccc2)C1CC(=O)Cn1cnc2ccc(F)c(F)c2c1=O (stereo not drawn),211 °C
19,CCOc1nn(-c2ccc(C(F)(F)F)cn2)cc1CCOc1ccc(CCC(=O)O)c(C)c1,117 to 119 °C
20,O=C1c2cc(Br)cc(Br)c2CCC1n1ccnc1 (stereo not drawn),180 to 184 °C
21,NC(=O)C=Cc1ccc(NC(=O)C=C2CC(C(=O)OCc3ccccc3)Nc3cc(Cl)cc(Cl)c32)cc1 (racemic),> 250 °C
22,O=C(C=Cc1cccc(S(=O)(=O)NCc2cccc3ccccc23)c1)NO,177 °C
23,CCc1nc2c(N)nc3ccccc3c2n1CC(C)C,233 to 234 °C
24,COC(=O)C1=C(C)NC(C)=C(C(=O)OCC2CCCO2)C1c1ccccc1Cl (stereo not drawn),165 to 167 °C
25,CC(Oc1ccc(Cl)cc1)c1ccnc2ncnn12 (stereo not drawn),98 to 99 °C

row,SMILES,melting point
1,O=C1N(CC2CCCO2)c2ccccc2C12COc1cc3c(cc12)CCCO3 (stereo not drawn),151 to 156 °C
2,CC(=O)c1ccc2c(c1)C(C)(C)c1cccnc1O2,106 to 108 °C
3,CCOC(=O)COc1ccc(N2CCN(C(=O)OC(C)(C)C)CC2)cc1C=O,93 to 94 °C
4,Cc1ccccc1N1CCc2cnc3c(C)cccc3c21,109 to 110 °C
5,CC(C)CC(CO)(CO)CC(C)C,75 to 77 °C
6,CCCCc1nc(COC)c(C(=O)OC)n1Cc1ccc(-c2ccccc2C(=O)O)cc1,106 to 110 °C
7,CS(=O)(=O)c1c[nH]c(=O)c(I)c1,273 to 276 °C
8,O=C(O)CCCCCc1nn(-c2ccc([N+](=O)[O-])cc2)c2c1CCC2,131 to 132 °C
9,O=C(NCc1ccn(-c2cc3nc(C(=O)O)c(=O)[nH]c3cc2C(F)(F)F)c1)Nc1ccccc1,> 300 °C
10,Cc1nnsc1C(=O)Nc1ccc(-n2nc(C(F)(F)F)cc2C2CC2)nc1,170 to 172 °C
11,COc1ccc(N2CCN(c3ccc(OC)nc3-c3ccc(N(C)C)cc3)CC2)cc1,163 to 165 °C
12,O=C(CCC(=O)N(CCCOc1ccc(C(=O)O)cc1)c1ccc(Cl)cc1)Nc1ccc(Cl)cc1,197 to 201 °C
13,CCOC(=O)COc1c(C)cc(C(O)(C(F)(F)F)C(F)(F)F)cc1C,99 to 101 °C
14,CCN(CC)C(=O)C(C)(C)n1cc(C)c(-c2ccccc2Cl)n1,73 to 76 °C
15,COc1cc(Nc2nccc(NC3CCCCC3)n2)cc(OC)c1OC,128 °C
16,CC(C)c1ccc(NC(=O)OC(C)(C)C)c(NC(=O)CC(=O)c2cccc(C#N)c2)c1,179 to 180 °C
17,COC(=O)C(N)(CO)Cc1c[nH]c2ccccc12 (racemic),148 to 149 °C
18,COC(=O)CCNC(=O)c1ccc2c(c1)nc(-c1ccc(C(=N)N)cc1)n2CCC(c1ccccc1)c1ccccc1,> 200 °C
19,O=S1(=O)c2cccc3cccc(c23)N1CCN1CCC(CN2CCc3[nH]c4ccc(F)cc4c3C2)CC1,228 °C
20,COc1cc2ncnc(N3CCc4cc(OCc5ccccc5)ccc43)c2cc1OC,181 to 182 °C
21,CN1C(=O)CC[C@]2(C)c3ccc(-c4ccc([N+](=O)[O-])cc4)cc3CC[C@@H]12,59 to 60 °C
22,CCOC(=O)c1cn(NCC(=O)OC)c2cc3c(cc2c1=O)OCO3,142 to 145 °C
23,CNc1ccc(C(=O)OC)c(S(=O)(=O)NC(C)(C)C)c1,120 to 124 °C
24,OC(CNCCCc1ccccc1)COc1cccc2[nH]ncc12 (stereo not drawn),122 to 124 °C
25,N#Cc1csc2c1CCN(C(=O)C(F)(F)F)CC2c1ccccc1 (stereo not drawn),107 °C

row,SMILES,melting point
1,COc1ccc2c(c1)OC(C(=O)O)Oc1ccccc1C2 (stereo not drawn),149 to 153 °C
2,CNC(=C[N+](=O)[O-])NCc1ccc(Cl)cc1,219 to 220 °C
3,C[Si](C)(C)CC1=C[C@@H](c2ccccc2)[C@H]2C(=O)OC(=O)[C@H]2C1 (racemic),126 °C
4,O=C(c1ccccc1)N(c1ccccc1)c1ccc(O)cc1,257 to 260 °C
5,CCCOc1ccc(-c2cc(C)cn2-c2ccc(S(N)(=O)=O)cc2)cc1,142 to 145 °C
6,CSc1ccc(C[C@@H](NC(=O)OCc2ccccc2)[C@H](O)C(=O)O)cc1,174 to 177 °C
7,O=C(O)Cc1cccc(OCCCc2cc(-c3ccc(C(F)(F)F)cc3)no2)c1,126 to 127 °C
8,COc1cc2c(Nc3ccc(Oc4cccnc4)cc3)c(C#N)cnc2cc1OCC1CCN(C)CC1,182 to 184 °C
9,COc1cc(C)nc(NC(=O)NS(=O)(=O)c2ccccc2C(=O)Nc2nccs2)n1,185 to 187 °C
10,COc1cc(OC)cc(C(=O)CC(=O)c2ccc(O)cc2O)c1,267 to 268 °C
11,COC(=O)C(C)(C)Oc1ccc(C(C)=O)cc1,62 to 63 °C
12,CS(=O)(=O)c1ccc(-c2sc(-c3ccccc3Cl)nc2-c2ccc(Cl)cc2)cc1,177 to 179 °C
13,COc1ccc(COc2ccc(C(=O)NC[C@@H](C(=O)NO)N3CCN(S(C)(=O)=O)CC3)cc2)cc1,148 °C
14,COC(=O)CS(=O)(=O)Nc1ccc(F)c(C(F)(F)F)c1,111 to 112 °C
15,Cn1nc(-c2cccnc2)c2c(C(F)(F)F)cc(-c3cccc(CN4CCOCC4)c3)nc21,155 °C
16,CN(C)S(=O)(=O)Nc1cccc(-c2cccc(-c3nc(-c4ccc(C(F)(F)F)cc4)cc(C(F)(F)F)n3)c2)c1,113 °C
17,O=C(C=Cc1cccc(Cl)c1Cl)c1ccc(OC2CCCCO2)cc1 (stereo not drawn),116 to 118 °C
18,CCOC(=O)Cc1ccc(NC(=O)C(COc2ccccc2)NS(=O)(=O)c2ccc(I)cc2)cc1 (racemic),178 to 180 °C
19,CC(C)c1cccc(C(C)C)c1NC(=O)c1ccccc1N,207 to 209 °C
20,Cc1ccc(-c2ccc3cc4c(cc3c2)C(C)(C)CCC4(C)C)cc1,91 to 92 °C
21,CCOC(=O)C(=CN(C)C)C(=O)c1cc(F)c(Cl)cc1Cl,94 to 95 °C
22,CCc1ncnc(NC2CCC(c3ccc(Oc4ccc(C(F)(F)F)cn4)cc3)CC2)c1Cl (stereo not drawn),114 to 116 °C
23,Cc1nc2c(N)nc3ccccc3c2n1CCS(C)(=O)=O,242 to 245 °C

# Source: a melting point compilation (Tetko et al.; mined from patent text by program, amines drawn as free bases though some values may be those of a salt)
